# Where two headings read alike, the source gives them in different places.
# Legend:
# [1] = biological target: T1, ACE N-domain (wild-type) (Homo sapiens, UniProt P12821); test: continuous fluorogenic (Abz)-FRK(Dnp)P-OH ACE inhibition assay, wild-type N-domain; assay type: biochemical; settings: for Fold selectivity Ki (C/N): C-domain Ki / wild-type N-domain Ki
# T1 construct: Assays were performed on wild-type N-domain, C-domain and N-domain S2 mutants; made in house; host or cells: CHO (Chinese-hamster ovary) cells
# Experimental: (§1) Parent molecule RXP407 and compound 33RE were dissolved in sterile distilled water to yield stock solutions of 10 mM and subsequently serially diluted in assay buffer (50 mM Hepes, pH 6.8, 200 mM NaCl and 10 μM ZnSO4). Assays were performed on wild-type N-domain, C-domain and N-domain S2 mutants Y369F, R381E and YR/FE as described previously. Briefly, 40 nM enzyme was incubated with an equivolume amount of an appropriate concentration range of phosphinic inhibitor at ambient temperature for 5 min. Enzyme-inhibitor solutions were then divided into aliquotes in triplicate 20 μl volumes followed by the addition of 280 μl of fluorogenic substrate (Abz)-FRK(Dnp)P-OH (in assay buffer) to yield a final substrate concentration of 4 or 8 μM. Residual enzyme activity was monitored continuously at λex=320 nm and λem=420 nm using a fluorescence spectrophotometer (Cary Eclipse, Varian). Initial change of fluorescence over time was converted into arbitrary rate units and inhibitor-binding affinities determined using the Dixon method.
# (§2) Assessment of inhibitor potential was carried out using a continuous fluorogenic assay (Abz)-FRK(Dnp)P assay.
# [2] = biological target: T2, ACE N-domain mutant Y369F (Homo sapiens, UniProt P12821, Y398F); test: continuous fluorogenic (Abz)-FRK(Dnp)P-OH ACE inhibition assay, N-domain S2 mutant Y369F; assay type: biochemical
# T2 construct: N-domain S2 mutants Y369F, R381E and YR/FE
# Experimental: as §1, §2
# [3] = biological target: T3, ACE N-domain mutant R381E (Homo sapiens, UniProt P12821, R410E); test: continuous fluorogenic (Abz)-FRK(Dnp)P-OH ACE inhibition assay, N-domain S2 mutant R381E; assay type: biochemical
# T3 construct: N-domain S2 mutants Y369F, R381E and YR/FE
# Experimental: as §1, §2
# [4] = biological target: T4, ACE N-domain double mutant YR/FE (Homo sapiens, UniProt P12821, R410E/Y398F); test: continuous fluorogenic (Abz)-FRK(Dnp)P-OH ACE inhibition assay, N-domain S2 double mutant YR/FE; assay type: biochemical
# T4 construct: N-domain S2 mutants Y369F, R381E and YR/FE
# Experimental: as §1, §2
# [5] = biological target: T1, ACE N-domain (wild-type); set-up: method as in PMID 10200262; settings: N-domain over C-domain; cited from earlier work
# T1 sequence (P12821 40-624 limits assumed): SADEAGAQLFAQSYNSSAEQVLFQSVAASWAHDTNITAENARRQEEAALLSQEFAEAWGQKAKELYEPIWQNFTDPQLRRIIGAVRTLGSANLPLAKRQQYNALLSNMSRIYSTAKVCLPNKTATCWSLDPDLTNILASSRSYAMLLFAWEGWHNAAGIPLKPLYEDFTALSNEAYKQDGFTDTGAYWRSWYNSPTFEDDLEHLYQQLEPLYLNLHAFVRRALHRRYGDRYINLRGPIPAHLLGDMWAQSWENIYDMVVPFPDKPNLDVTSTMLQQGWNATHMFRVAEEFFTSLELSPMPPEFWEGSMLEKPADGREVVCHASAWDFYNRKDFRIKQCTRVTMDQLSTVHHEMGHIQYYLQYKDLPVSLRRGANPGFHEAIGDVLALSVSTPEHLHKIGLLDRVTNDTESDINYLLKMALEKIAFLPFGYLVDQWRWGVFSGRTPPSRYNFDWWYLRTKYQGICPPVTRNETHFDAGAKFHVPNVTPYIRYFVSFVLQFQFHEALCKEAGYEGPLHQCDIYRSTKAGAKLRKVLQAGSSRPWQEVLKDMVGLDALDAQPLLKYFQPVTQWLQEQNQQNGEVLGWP
# T2 sequence (P12821 40-624 Y398F): as the sequence (P12821 40-624 limits assumed) above, with Y359F counted along it
# T4 sequence (P12821 40-624 Y398F/R410E): as the sequence (P12821 40-624 limits assumed) above, with Y359F, R371E counted along it
# T3 sequence (P12821 40-624 R410E): as the sequence (P12821 40-624 limits assumed) above, with R371E counted along it
"Ki ([1]; wild-type N-domain, Dixon method, means±S.E.M., read-out: Ki) [nM]",Structure (SMILES),Ki [1] [nM],Fold selectivity Ki (C/N) [1] [fold],Fold selectivity Ki (C/N) ([2]; C-domain Ki / Y369F mutant Ki) [fold],"Ki ([2]; N-domain mutant Y369F, means±S.E.M.) [nM]",decrease in binding affinity compared with wild-type ([2]; Y369F vs wild-type N-domain) [fold],Fold selectivity Ki (C/N) ([3]; C-domain Ki / R381E mutant Ki) [fold],"Ki ([3]; N-domain mutant R381E, means±S.E.M.) [nM]",decrease in binding affinity compared with wild-type ([3]; R381E vs wild-type N-domain) [fold],Fold selectivity Ki (C/N) ([4]; C-domain Ki / YR/FE mutant Ki) [fold],"Ki ([4]; N-domain double mutant YR/FE, means±S.E.M.) [nM]",decrease in binding affinity compared with wild-type ([4]; YR/FE vs wild-type N-domain) [fold],N-selectivity [5]
–,C[C@H](CP(=O)(O)[C@H](Cc1ccccc1)NC(=O)[C@@H](N)Cc1nnn[nH]1)C(=O)N[C@H](C)C(N)=O [33RE],11.2 ± 0.74,927,26,404 ± 17.3,36,120,87 ± 6.29,8,4,2790 ± 156,250,–
21 ± 0.27,"CC(=O)NC(CC(=O)O)C(=O)NC(Cc1ccccc1)P(=O)(O)CC(C)C(=O)NC(C)C(N)=O (centres unmarked) [RXP407, reference compound]",–,2896,–,–,–,–,–,–,–,–,–,approximately three orders of magnitude
